ChEMBL document CHEMBL5537150, “Synthesis of melampomagnolide B derivatives as potential anti-Triple Negative Breast Cancer agents” (Eur J Med Chem, 2024)
Active and inactive are the calls of the source. The calls are words filed in the database; no cut-off is given here.

What was measured:
MDA-MB-468 [1] = test: Antiproliferative activity against human MDA-MB-468 cells assessed as inhibition of cell growth incubated for 72 hrs by MTT assay; assay type: functional, cell-based; settings: MDA-MB-468, 72 h
MDA-MB-468 [2] = test: Antimigratory activity in human MDA-MB-468 cells assessed as downregulation of Vimentin protein expression incubated for 48 hrs by Western blotting analysis; assay type: functional, cell-based
MDA-MB-231 [3] = test: Antimigratory activity in human MDA-MB-231 cells assessed as downregulation of N-cadherin protein expression incubated for 48 hrs by Western blotting analysis; assay type: functional, cell-based
MDA-MB-231 [4] = test: Inhibition of NF-kappaB signalling pathway in human MDA-MB-231 cells assessed as inhibition of p65 nuclear translocation at 0.2 to 2 uM incubated for 48 hrs by Western blotting analysis; assay type: cell-based; settings: dose 0.2-2 µM
MDA-MB-231 [5] = test: Induction of apoptosis in human MDA-MB-231 cells at 1 uM incubated for 48 hrs by annexin-V-APC/PI staining based flow cytometric analysis (reference value: 1.81 +/- 0.47 %); assay type: functional
NIH3T3 = test: Cytotoxicity against mouse 3T3 cells at 1 uM incubated for 72 hrs by MTT assay; assay type: toxicity, cell-based; settings: nih3t3, 72 h
MDA-MB-468 [6] = test: Antimigratory activity in human MDA-MB-468 cells assessed as downregulation of N-cadherin protein expression incubated for 48 hrs by Western blotting analysis; assay type: functional, cell-based
MDA-MB-468 [7] = test: Induction of apoptosis in human MDA-MB-468 cells at 1 uM incubated for 48 hrs by annexin-V-APC/PI staining based flow cytometric analysis (reference value: 5.38 +/- 1.63 %); assay type: functional
4T1 [8] = test: Antiproliferative activity against mouse 4T1 cells assessed as inhibition of cell growth incubated for 72 hrs by MTT assay; assay type: functional, cell-based; settings: 4T1, 72 h
MDA-MB-231 [9] = test: Induction of cell cycle arrest in human MDA-MB-231 cells assessed as downregulation of Cdc25c protein expression incubated for 48 hrs by Western blotting analysis; assay type: functional, cell-based
MDA-MB-231 [10] = test: Induction of cell cycle arrest in human MDA-MB-231 cells assessed as decrease in accumulation of cells at G1 phase at 0.2 to 2 uM incubated for 48 hrs by RNase/PI staining based flow cytometric analysis; assay type: functional; settings: dose 0.2-2 µM
MDA-MB-468 [11] = test: Antimigratory activity in human MDA-MB-468 cells assessed as reduction in number of migrated cells incubated for 48 hrs by crystal violet staining based transwell assay; assay type: functional, cell-based
MDA-MB-231 [12] = test: Induction of cell cycle arrest in human MDA-MB-231 cells assessed as downregulation of Cyclin B1 protein expression incubated for 48 hrs by Western blotting analysis; assay type: functional, cell-based
4T1 [13] = test: Antitumor activity against mouse 4T1 cells implanted in Balb/c mouse assessed as inhibition of tumor volume at 10 mg/kg,ip administrated every two days for 20 days; assay type: functional, organism-based; settings: time 20.0 day
MDA-MB-468 [14] = test: Induction of apoptosis in human MDA-MB-468 cells at 5 uM incubated for 48 hrs by annexin-V-APC/PI staining based flow cytometric analysis (reference value: 5.38 +/- 1.63 %); assay type: functional
MDA-MB-231 [15] = test: Inhibition of NF-kappaB signalling pathway in human MDA-MB-231 cells assessed as downregulation of nuclear p65 expression at 0.2 to 2 uM incubated for 48 hrs by Western blotting analysis; assay type: cell-based; settings: dose 0.2-2 µM
MDA-MB-231 [16] = test: Induction of cell cycle arrest in human MDA-MB-231 cells assessed as increase in accumulation of cells at S phase at 0.2 to 2 uM incubated for 48 hrs by RNase/PI staining based flow cytometric analysis; assay type: functional; settings: dose 0.2-2 µM
MDA-MB-468 [17] = test: Induction of cell cycle arrest in human MDA-MB-468 cells assessed as downregulation of Cdc2 protein expression incubated for 48 hrs by Western blotting analysis; assay type: functional, cell-based
MDA-MB-231 [18] = test: Inhibition of NF-kappaB signalling pathway in human MDA-MB-231 cells assessed as downregulation of IkappaBalpha phosphorylation at 0.5 to 2 uM incubated for 48 hrs by Western blotting analysis; assay type: cell-based; settings: dose 0.5-2 µM
MDA-MB-231 [19] = test: Antimigratory activity in human MDA-MB-231 cells assessed as downregulation of Vimentin protein expression incubated for 48 hrs by Western blotting analysis; assay type: functional, cell-based
[20] = Toxicity in Balb/c mouse implanted with mouse 4T1 cells assessed as decrease in body weight at 10 mg/kg,ip administrated every two days for 20 days; assay type: organism-based; settings: in vivo, 480 h, time 20 day
MDA-MB-231 [21] = test: Induction of apoptosis in human MDA-MB-231 cells assessed as downregulation of BCL-xl protein expression incubated for 48 hrs by Western blotting analysis; assay type: functional, cell-based
MDA-MB-231 [22] = test: Induction of apoptosis in human MDA-MB-231 cells assessed as downregulation of MCL-1 protein expression incubated for 48 hrs by Western blotting analysis; assay type: functional, cell-based
MDA-MB-468 [23] = test: Induction of cell cycle arrest in human MDA-MB-468 cells assessed as increase in accumulation of cells at G2/M phase at 0.2 to 2 uM incubated for 48 hrs by RNase/PI staining based flow cytometric analysis; assay type: functional; settings: dose 0.2-2 µM
MDA-MB-231 [24] = test: Induction of apoptosis in human MDA-MB-231 cells at 0.5 uM incubated for 48 hrs by annexin-V-APC/PI staining based flow cytometric analysis (reference value: 1.81 +/- 0.47 %); assay type: functional
MDA-MB-468 [25] = test: Induction of apoptosis in human MDA-MB-468 cells at 0.5 uM incubated for 48 hrs by annexin-V-APC/PI staining based flow cytometric analysis (reference value: 5.38 +/- 1.63 %); assay type: functional
MDA-MB-468 [26] = test: Induction of apoptosis in human MDA-MB-468 cells at 0.2 uM incubated for 48 hrs by annexin-V-APC/PI staining based flow cytometric analysis (reference value: 5.38 +/- 1.63 %); assay type: functional
4T1 [27] = test: Antitumor activity against mouse 4T1 cells implanted in Balb/c mouse assessed as decrease in spleen weight at 10 mg/kg,ip administrated every two days for 20 days; assay type: functional, organism-based; settings: time 20.0 day
MDA-MB-468 [28] = test: Induction of cell cycle arrest in human MDA-MB-468 cells assessed as decrease in accumulation of cells at G1 phase at 0.2 to 2 uM incubated for 48 hrs by RNase/PI staining based flow cytometric analysis; assay type: functional; settings: dose 0.2-2 µM
MDA-MB-231 [29] = test: Induction of apoptosis in human MDA-MB-231 cells at 0.2 uM incubated for 48 hrs by annexin-V-APC/PI staining based flow cytometric analysis (reference value: 1.81 +/- 0.47 %); assay type: functional
MDA-MB-231 [30] = test: Induction of apoptosis in human MDA-MB-231 cells assessed as upregulation of Bax protein expression incubated for 48 hrs by Western blotting analysis; assay type: functional, cell-based
MDA-MB-231 [31] = test: Inhibition of NF-kappaB signalling pathway in human MDA-MB-231 cells assessed as effect on total p65 protein level at 0.2 to 2 uM incubated for 48 hrs by Western blotting analysis; assay type: cell-based; settings: dose 0.2-2 µM
MDA-MB-468 [32] = test: Induction of cell cycle arrest in human MDA-MB-468 cells assessed as downregulation of Cdc25c protein expression incubated for 48 hrs by Western blotting analysis; assay type: functional, cell-based
MDA-MB-231 [33] = test: Induction of cell cycle arrest in human MDA-MB-231 cells assessed as increase in accumulation of cells at G2/M phase at 0.2 to 2 uM incubated for 48 hrs by RNase/PI staining based flow cytometric analysis; assay type: functional; settings: dose 0.2-2 µM
MDA-MB-231 [34] = test: Induction of cell cycle arrest in human MDA-MB-231 cells assessed as downregulation of Cdc2 protein expression incubated for 48 hrs by Western blotting analysis; assay type: functional, cell-based

In the case of `C=C1C(=O)O[C@H]2[C@H]1CC/C(COc1ccc(-c3cc(=S)ss3)cc1)=C\CC[C@@]1(C)O[C@@H]21`, the IC50 (MDA-MB-468 [1]) is reported as 1.52 µM, the Activity (MDA-MB-468 [2]) is reported as “Dose-Dependent Effect” and the Activity (MDA-MB-231 [3]) is reported as “Dose-Dependent Effect”. For the same compound, the inhibition (MDA-MB-231 [4]) was “Active”, the Activity (MDA-MB-231 [5]) was 11.6% and the Activity (NIH3T3) was “Toxic”. For the same compound, the Activity (MDA-MB-468 [6]) was “Dose-Dependent Effect”, the Activity (MDA-MB-468 [7]) was 6.4% and the IC50 (4T1 [8]) was 1.18 µM. The Activity (MDA-MB-231 [9]) was “Dose-Dependent Effect”, the Activity (MDA-MB-231 [10]) was “Active” and the Activity (MDA-MB-468 [11]) was “Dose-Dependent Effect”. The Activity (MDA-MB-231 [12]) was “Dose-Dependent Effect”, the Activity (4T1 [13]) was “Active” and the Activity (MDA-MB-468 [14]) was 43.96%. For the same compound, the inhibition (MDA-MB-231 [15]) was “Active”, the Activity (MDA-MB-231 [16]) was “Active” and the Activity (MDA-MB-468 [17]) was “Dose-Dependent Effect”. For the same compound, the inhibition (MDA-MB-231 [18]) was “Active”, the Activity (MDA-MB-231 [19]) was “Dose-Dependent Effect” and the Activity [20] was “Toxic”. The Activity (MDA-MB-231 [21]) was “Dose-Dependent Effect”, the Activity (MDA-MB-231 [22]) was “Dose-Dependent Effect” and the Activity (MDA-MB-468 [23]) was “Active”. For the same compound, the Activity (MDA-MB-231 [24]) was 2.3%, the Activity (MDA-MB-468 [25]) was 5.77% and the Activity (MDA-MB-468 [26]) was 4.32%. For the same compound, the Activity (4T1 [27]) was “Active”, the Activity (MDA-MB-468 [28]) was “Active” and the Activity (MDA-MB-231 [29]) was 2.01%. For the same compound, the Activity (MDA-MB-231 [30]) was “Dose-Dependent Effect”, the inhibition (MDA-MB-231 [31]) was “inactive” and the Activity (MDA-MB-468 [32]) was “Dose-Dependent Effect”. The Activity (MDA-MB-231 [33]) was “Active” and the Activity (MDA-MB-231 [34]) was “Dose-Dependent Effect”.
